From patent US20240270741A1 (Cogent Biosciences, Inc., priority 2023, published 2024)

biological target: FGFR2 (Homo sapiens, UniProt P21802); assay: FGFR wild type enzyme assay (HTRF KinEASE-TK), FGFR2; conditions: Enz FGFR2 (nM), FGFR2 wild type enzyme assay
Sequence (P21802 399-821 limits assumed): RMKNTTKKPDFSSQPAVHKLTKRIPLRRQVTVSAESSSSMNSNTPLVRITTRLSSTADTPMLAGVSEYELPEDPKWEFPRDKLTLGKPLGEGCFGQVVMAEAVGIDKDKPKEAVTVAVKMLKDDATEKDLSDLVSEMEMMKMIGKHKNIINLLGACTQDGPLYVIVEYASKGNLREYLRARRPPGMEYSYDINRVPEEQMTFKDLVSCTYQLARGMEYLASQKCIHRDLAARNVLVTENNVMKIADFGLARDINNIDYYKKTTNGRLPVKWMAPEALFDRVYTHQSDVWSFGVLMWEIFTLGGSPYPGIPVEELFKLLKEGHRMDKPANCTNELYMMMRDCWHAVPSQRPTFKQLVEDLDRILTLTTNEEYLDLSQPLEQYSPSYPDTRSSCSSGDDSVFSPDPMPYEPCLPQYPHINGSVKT

Row | SMILES | IC50 [nM]
1 | CC(=O)N1CCC(n2ncc(-c3cc(Sc4ncccc4F)c4c(C#N)cnn4c3)c2F)CC1 [Example 397, 6-(1-(1-acetylpiperidin-4-yl)-5-fluoro-1H-pyrazol-4-yl)-4-((3-fluoropyridin-2-yl)thio)pyrazolo[1,5-a]pyridine-3-carbonitrile] | 5
2 | CC(=O)N1CCC(n2ncc(-c3cc(Sc4ccccc4C#N)c4c(C#N)cnn4c3)c2F)CC1 [Example 398, 6-(1-(1-acetylpiperidin-4-yl)-5-fluoro-1H-pyrazol-4-yl)-4-((2-cyanophenyl)thio)pyrazolo [1,5-a]pyridine-3-carbonitrile] | 2
3 | CC(=O)N1CCC(n2ncc(-c3cc(Sc4nc(C)c(F)cc4F)c4c(C#N)cnn4c3)c2C)CC1 [Example 399, 6-(1-(1-acetylpiperidin-4-yl)-5-methyl-1H-pyrazol-4-yl)-4-((3,5-difluoro-6-methylpyridin-2-yl)thio)pyrazolo[1,5-a]pyridine-3-carbonitrile] | 2
4 | CC(=O)N1CCC(n2cc(-c3cc(Sc4ccccc4C#N)c4c(C#N)cnn4c3)c(C)n2)CC1 [Example 400, 6-(1-(1-acetylpiperidin-4-yl)-3-methyl-1H-pyrazol-4-yl)-4-((2-cyanophenyl)thio)pyrazolo [1,5-a]pyridine-3-carbonitrile] | 3
5 | CC(=O)N1CCC(n2cc(-c3cc(Sc4ncccc4F)c4c(C#N)cnn4c3)c(C)n2)CC1 [Example 401, 6-(1-(1-acetylpiperidin-4-yl)-3-methyl-1H-pyrazol-4-yl)-4-((3-fluoropyridin-2-yl)thio)pyrazolo[1,5-a]pyridine-3-carbonitrile] | 7
6 | Cc1c(-c2cc(Sc3ccc(F)cc3C#N)c3c(C#N)cnn3c2)cnn1[C@H]1CCCN(S(C)(=O)=O)C1 [Example 402, (S)-4-((2-cyano-4-fluorophenyl)thio)-6-(5-methyl-1-(1-(methylsulfonyl)piperidin-3-yl)-1H-pyrazol-4-yl)pyrazolo[1,5-a]pyridine-3-carbonitrile] | 2
7 | Cc1c(-c2cc(Sc3ccc(F)cc3C#N)c3c(C#N)cnn3c2)cnn1C1CCN(S(C)(=O)=O)CC1 [Example 403, 4-((2-cyano-4-fluorophenyl)thio)-6-(5-methyl-1-(1-(methylsulfonyl)piperidin-4-yl)-1H-pyrazol-4-yl)pyrazolo[1,5-a]pyridine-3-carbonitrile] | 2
8 | N#Cc1cnn2cc(-c3cn([C@H]4CCCNC4)nn3)cc(Sc3ncccc3F)c12 [Example 404, (S)-4-((3-fluoropyridin-2-yl)thio)-6-(1-(piperidin-3-yl)-1H-1,2,3-triazol-4-yl)pyrazolo[1,5-a]pyridine-3-carbonitrile] | 15
9 | N#Cc1cc(F)ccc1Sc1cc(-c2ccc(N3CCOCC3)nc2)cn2ncc(C#N)c12 [Example 405, 4-((2-cyano-4-fluorophenyl)thio)-6-(6-morpholinopyridin-3-yl)pyrazolo[1,5-a]pyridine-3-carbonitrile] | 2
10 | Cc1c(-c2cc(Sc3ccccc3C#N)c3c(C#N)cnn3c2)cnn1C1CCN(C(=O)N(C)C)CC1 [Example 406, 4-(4-(3-cyano-4-((2-cyanophenyl)thio)pyrazolo [1,5-a]pyridin-6-yl)-5-methyl-1H-pyrazol-1-yl)-N,N-dimethylpiperidine-1-carboxamide] | 1
11 | CN(c1ccc(-c2cc(Sc3ccccc3C#N)c3c(C#N)cnn3c2)cn1)C1CCCNC1 (stereo not drawn) [Example 407, 4-(2-cyanophenyl)sulfanyl-6-[6-[methyl(3-piperidyl)amino]-3-pyridyl]pyrazolo[1,5-a]pyridine-3-carbonitrile] | 0.2
12 | CC(=O)N1CCC(n2ncc(-c3cc(Sc4nc(C)c(Cl)cc4F)c4c(C#N)cnn4c3)c2C)CC1 [Example 408, 6-(1-(1-acetylpiperidin-4-yl)-5-methyl-1H-pyrazol-4-yl)-4-((5-chloro-3-fluoro-6-methylpyridin-2-yl)thio)pyrazolo[1,5-a]pyridine-3-carbonitrile] | 2
13 | CC(=O)N1[C@@H]2CC[C@H]1C[C@H](n1cc(-c3cc(Sc4ccccc4C#N)c4c(C#N)cnn4c3)c(C)n1)C2 [Example 409, 6-(1-((1R,3s,5S)-8-acetyl-8-azabicyclo[3.2.1]octan-3-yl)-3-methyl-1H-pyrazol-4-yl)-4-((2-cyanophenyl)thio)pyrazolo [1,5-a]pyridine-3-carbonitrile] | 5
14 | CC(=O)N1[C@@H]2CC[C@H]1C[C@H](n1cc(-c3cc(Sc4ccc(F)cc4C#N)c4c(C#N)cnn4c3)c(C)n1)C2 [Example 410, 6-(1-((1R,3s,5S)-8-acetyl-8-azabicyclo[3.2.1]octan-3-yl)-3-methyl-1H-pyrazol-4-yl)-4-((2-cyano-4-fluorophenyl)thio)pyrazolo [1,5-a]pyridine-3-carbonitrile] | 26
15 | CC(=O)N1CC[C@H](n2ncc(-c3cc(Sc4ccc(F)cc4C#N)c4c(C#N)cnn4c3)c2C)C[C@@H]1C [Example 411, 6-(1-((2S,4S)-1-acetyl-2-methylpiperidin-4-yl)-5-methyl-1H-pyrazol-4-yl)-4-((2-cyano-4-fluorophenyl)thio)pyrazolo [1,5-a]pyridine-3-carbonitrile] | 2
16 | CC(=O)N1CC[C@@H](n2cc(-c3cc(Sc4ccc(F)cc4C#N)c4c(C#N)cnn4c3)cn2)C[C@H]1C [Example 412, 6-(1-((2R,4R)-1-acetyl-2-methylpiperidin-4-yl)-1H-pyrazol-4-yl)-4-((2-cyano-4-fluorophenyl)thio)pyrazolo [1,5-a]pyridine-3-carbonitrile] | 1
17 | Cc1nn([C@H]2CCCNC2)cc1-c1cc(Sc2ccccc2C#N)c2c(C#N)cnn2c1 [Example 413, (S)-4-((2-cyanophenyl)thio)-6-(3-methyl-1-(piperidin-3-yl)-1H-pyrazol-4-yl)pyrazolo[1,5-a]pyridine-3-carbonitrile] | 3
18 | Cc1nn([C@H]2CCCNC2)cc1-c1cc(Sc2ccc(F)cc2C#N)c2c(C#N)cnn2c1 [Example 414, (S)-4-((2-cyano-4-fluorophenyl)thio)-6-(3-methyl-1-(piperidin-3-yl)-1H-pyrazol-4-yl)pyrazolo[1,5-a]pyridine-3-carbonitrile] | 7
19 | Cc1nn([C@H]2CCCNC2)cc1-c1cc(Sc2ncccc2F)c2c(C#N)cnn2c1 [Example 415, (S)-4-((3-fluoropyridin-2-yl)thio)-6-(3-methyl-1-(piperidin-3-yl)-1H-pyrazol-4-yl)pyrazolo[1,5-a]pyridine-3-carbonitrile] | 7
20 | Cc1nn([C@H]2CCCN(C(=O)CO)C2)cc1-c1cc(Sc2ncccc2F)c2c(C#N)cnn2c1 [Example 420, (S)-4-((3-fluoropyridin-2-yl)thio)-6-(1-(1-(2-hydroxyacetyl)piperidin-3-yl)-3-methyl-1H-pyrazol-4-yl)pyrazolo[1,5-a]pyridine-3-carbonitrile] | 4
21 | N#Cc1cnn2cc(-c3cnn([C@H]4CCNC4)c3)cc(Sc3ncccc3F)c12 [Example 421, (S)-4-((3-fluorop;yridin-2-yl)thio)-6-(1-(pyrrolidin-3-yl)-1H-pyrazol-4-yl)pyrazolo[1,5-a]pyridine-3-carbonitrile] | 5
22 | CC(=O)N1CCC(n2ncc(-c3cc(Sc4ncccc4F)c4c(C#N)cnn4c3)c2CO)CC1 [Example 423, 6-(1-(1-acetylpiperidin-4-yl)-5-(hydroxymethyl)-1H-pyrazol-4-yl)-4-((3-fluoropyridin-2-yl)thio)pyrazolo[1,5-a]pyridine-3-carbonitrile] | 259
23 | COCc1c(-c2cc(Sc3ccccc3C#N)c3c(C#N)cnn3c2)cnn1C1CCN(C)CC1 [Example 424, 4-((2-cyanophenyl)thio)-6-(5-(methoxymethyl)-1-(1-methylpiperidin-4-yl)-1H-pyrazol-4-yl)pyrazolo[1,5-a]pyridine-3-carbonitrile] | 46
24 | CC(=O)N1CCC[C@H](n2cc(-c3cc(Sc4ccc(F)cc4C#N)c4c(C#N)cnn4c3)c(C)n2)C1 [Example 425, (S)-6-(1-(1-acetylpiperidin-3-yl)-3-methyl-1H-pyrazol-4-yl)-4-((2-cyano-4-fluorophenyl)thio)pyrazolo [1,5-a]pyridine-3-carbonitrile] | 6
25 | Cc1nn([C@H]2CCCN(C(=O)CO)C2)cc1-c1cc(Sc2ccc(F)cc2C#N)c2c(C#N)cnn2c1 [Example 426, (S)-4-((2-cyano-4-fluorophenyl)thio)-6-(1-(1-(2-hydroxyacetyl)piperidin-3-yl)-3-methyl-1H-pyrazol-4-yl)pyrazolo[1,5-a]pyridine-3-carbonitrile] | 4
26 | N#Cc1ccccc1Sc1cc(-c2cnn([C@H]3CCNC3)c2)cn2ncc(C#N)c12 [Example 427, (S)-4-((2-cyanophenyl)thio)-6-(1-(pyrrolidin-3-yl)-1H-pyrazol-4-yl)pyrazolo[1,5-a]pyridine-3-carbonitrile] | 0.4
27 | CC(=O)N1CCC(n2cc(-c3cc(Sc4ncccc4F)c4c(C#N)cnn4c3)cn2)CC1 [Example 428, 6-(1-(1-acetylpiperidin-4-yl)-1H-pyrazol-4-yl)-4-((3-fluoropyridin-2-yl)thio)pyrazolo[1,5-a]pyridine-3-carbonitrile] | 1
28 | CC(=O)N1CCC(n2cc(-c3cc(Sc4ccc(F)cc4C#N)c4c(C#N)cnn4c3)cn2)CC1 [Example 429, 6-(1-(1-acetylpiperidin-4-yl)-1H-pyrazol-4-yl)-4-((2-cyano-4-fluorophenyl)thio)pyrazolo [1,5-a]pyridine-3-carbonitrile] | 1
29 | CN1CCC(n2cc(-c3cc(Sc4ncccc4F)c4c(C#N)cnn4c3)nn2)CC1 [Example 430, 4-((3-fluoropyridin-2-yl)thio)-6-(1-(1-methylpiperidin-4-yl)-1H-1,2,3-triazol-4-yl)pyrazolo[1,5-a]pyridine-3-carbonitrile] | 10
30 | CC(=O)N1CCC[C@H](n2ncc(-c3cc(Sc4nc(C)c(F)cc4F)c4c(C#N)cnn4c3)c2C)C1 [Example 431, (S)-6-(1-(1-acetylpiperidin-3-yl)-5-methyl-1H-pyrazol-4-yl)-4-((3,5-difluoro-6-methylpyridin-2-yl)thio)pyrazolo[1,5-a]pyridine-3-carbonitrile] | 2
